# According to US20130023553A1, “PEGYLATED OPIOIDS WITH LOW POTENTIAL FOR ABUSE AND SIDE EFFECTS” (Nektar Therapeutics, priority 2010, published 2013):
# Read-outs that look alike come from different tables or passages of the source.
# Key:
# human mu opioid receptor [1] = target: T1, human mu opioid receptor (Homo sapiens, UniProt P35372); assay: cell-based; details: for Emax: read-out: % max effect, mu opioid receptor
# T1 construct: expressed in transfected cells; host or cells: CHO cells
# Protocol: Studies were conducted in CHO cells heterologously expressing the cloned human mu, kappa or delta opioid receptors. cAMP was measured using a cAMP HiRange homogenous time-resolved fluorescence assay (HTRF Assay), that is based on a competitive immunoassay principle (Cisbio, Cat.#62AM6PEC).
# Briefly, suspensions of cells expressing either the mu, kappa or delta opioid receptors were prepared in buffer containing 0.5 mM isobutyl-methyl xanthine (IBMX). […] EC50 values were calculated for each compound from a sigmoidal dose-response plot of concentrations versus maximum response. To determine if the compounds behaved as full or partial agonists in the system, the maximal response at the highest tested concentrations of compounds were compared to that produced by a known full agonist.
# human mu opioid receptor [2] = target: T1, human mu opioid receptor; assay: biochemical; format: binding
# Protocol: Radioligand displacement was measured using scintillation proximity assays (SPA).
# Briefly, serial dilutions of the test compounds were placed in a 96-well plate to which were added SPA beads, membrane and radioligand. The assay conditions for each opioid receptor subtype are described in Table 10 below. The plates were incubated for 8 hours-overnight at room temperature, spun at 1000 rpm to pellet the SPA beads, and radioactivity was measured using the TopCount® microplate Scintillation counter. Specific binding at each concentration of test compound was calculated by subtracting the non-specific binding measured in the presence of excess cold ligand. IC50 values were obtained by non-linear regression of specific binding versus concentration curves and Ki values were calculated using Kd values that were experimentally pre-determined for each lot of membrane preparations.
# [3] = Pharmacokinetics following intravenous (IV) dosing; format: in vivo, Sprague-Dawley rats; details: for AUC / AUC(0-inf) / MRT last / clearance / Cmax / half-life / Vd: male, Sprague-Dawley, rat, plasma; for Cmax: read-out: Cmax; for Vd: read-out: Vss
# Description: (§1) There were 3 rats/group. All animals were food fasted overnight. […] The predose sample was collected from the JVC.
# (§2) Following the last collection point, the animals were euthanized.
# [4] = Pharmacokinetics following oral (PO) dosing; format: in vivo, Sprague-Dawley rats; details: male, Sprague-Dawley, rat, plasma, po, 5 mg/kg; for Cmax: read-out: Cmax; for half-life: read-out: T1/2(2); for Tmax: read-out: Tmax (converted)
# Description: as §1, §2
# [5] = hydroxycodone series, 1 mg/kg IV, Mean ± SD
# [6] = hydroxycodone series, 1 mg/kg IV, Mean ± SD, read-out: T1/2(z)
# [7] = maximal response at the highest tested concentration
# [8] = read-out: EC50, mu opioid receptor
# [9] = CHO-K1 membranes, [3H]DAMGO 6 nM, read-out: Ki, Mu opioid receptor
# T1 sequence (P35372 whole entry): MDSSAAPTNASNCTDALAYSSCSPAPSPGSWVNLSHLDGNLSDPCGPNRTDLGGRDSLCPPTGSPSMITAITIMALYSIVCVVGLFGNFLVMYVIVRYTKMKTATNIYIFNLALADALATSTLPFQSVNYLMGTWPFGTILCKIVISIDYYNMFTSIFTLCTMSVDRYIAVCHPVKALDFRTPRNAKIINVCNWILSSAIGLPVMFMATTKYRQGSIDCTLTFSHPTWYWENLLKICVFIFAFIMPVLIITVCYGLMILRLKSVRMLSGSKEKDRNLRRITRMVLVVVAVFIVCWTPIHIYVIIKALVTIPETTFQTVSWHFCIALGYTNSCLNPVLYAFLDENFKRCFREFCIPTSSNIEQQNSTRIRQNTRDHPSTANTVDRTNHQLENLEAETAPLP
compound,measurement,setting,value
COCCOCCOCCOCCOC1C=CC2C3Cc4ccc(O)c5c4C2(CCN3C)C1O5 (stereo not drawn) [α-6-mPEG4-O-morphine],EC50,human mu opioid receptor [1],128 nM
same,Emax,human mu opioid receptor [1],100%
same,Ki,human mu opioid receptor [2],23.1 nM
"COCCOCCOCCOCCOCCOC1CCC2(O)C3Cc4ccc(OC)c5c4C2(CCN3C)C1O5 (stereo not drawn) [α-6-mPEG5-O-hydroxycodone, α-6-mPEG5-O-oxycodone]",AUC,[3]; [5],282 ng·h/mL
same,AUC(0-inf),[3]; [5],295 ng·h/mL
same,MRT last,[3]; [5],0.77 h
same,clearance,[3]; [5],57 ± 6.07 mL/min/kg
same,Cmax,[3]; [5],622 ± 39.7 ng/mL
same,half-life,[3]; [6],1.03 ± 0.0642 h
same,Vd,[3]; [5],3.3 ± 0.184 L/kg
same,Emax,human mu opioid receptor [1]; [7],108%
same,EC50,human mu opioid receptor [1]; [8],5040 nM
same,Ki,human mu opioid receptor [2]; [9],1860 nM
COCCOCCOCCOCCOCCOC1C=CC2C3Cc4ccc(O)c5c4C2(CCN3C)C1O5 (stereo not drawn) [α-6-mPEG5-O-morphine],EC50,human mu opioid receptor [1],157 nM
same,Emax,human mu opioid receptor [1],95%
same,Ki,human mu opioid receptor [2],39.4 nM
COCCOCCOCCOCCOCCOCCOC1C=CC2C3Cc4ccc(O)c5c4C2(CCN3C)C1O5 (stereo not drawn) [α-6-mPEG6-O-morphine],EC50,human mu opioid receptor [1],415 nM
same,Emax,human mu opioid receptor [1],98%
same,Ki,human mu opioid receptor [2],73 nM
COCCOCCOCCOCCOCCOCCOCCOC1C=CC2C3Cc4ccc(OC)c5c4C2(CCN3C)C1O5 (stereo not drawn) [α-6-mPEG7-O-codeine],AUC,"[3]; iv, 1 mg/kg",212 ng·h/mL
same,AUC(0-inf),"[3]; iv, 1 mg/kg",228 ng·h/mL
same,MRT last,"[3]; iv, 1 mg/kg",0.845 h
same,clearance,"[3]; iv, 1 mg/kg",73.1 ± 1.73 mL/min/kg
same,Cmax,"[3]; iv, 1 mg/kg",443 ± 43.3 ng/mL
same,half-life,"[3]; iv, 1 mg/kg, read-out: T1/2(2)",1.24 ± 0.096 h
same,Vd,"[3]; iv, 1 mg/kg",5.2 ± 0.596 L/kg
same,AUC,[4],285 ng·h/mL
same,AUC(0-inf),[4],267 ng·h/mL
same,MRT last,[4],2.85 h
same,bioavailability,[4],26.9%
same,Cmax,[4],76.6 ± 12.8 ng/mL
same,half-life,[4],1.63 h
same,Tmax,[4],2 h
same,Emax,human mu opioid receptor [1]; [7],75%
same,EC50,human mu opioid receptor [1]; [8],44700 nM
same,Ki,human mu opioid receptor [2]; [9],9960 nM
COCCOCCOCCOCCOCCOCCOCCOC1C=CC2C3Cc4ccc(O)c5c4C2(CCN3C)C1O5 (stereo not drawn) [α-6-mPEG7-O-morphine],EC50,human mu opioid receptor [1],508 nM
same,Emax,human mu opioid receptor [1],90%
same,Ki,human mu opioid receptor [2],56.9 nM
"COCCOCCOCCOCCOCCOCCOCCOCCOCCOC1C=CC2C3Cc4ccc(O)c5c4C2(CCN3C)C1O5 (stereo not drawn) [α-6-mPEG9-O-Morphine, α-6-mPEG-O9-morphine]",Emax,human mu opioid receptor [1]; [7],87%
same,EC50,human mu opioid receptor [1]; [8],1060 nM
same,Ki,human mu opioid receptor [2]; [9],111 nM
COCCOCCOCCOCCOCCOCCOCCOCCOCCOC1C=CC2C3Cc4ccc(OC)c5c4C2(CCN3C)C1O5 (stereo not drawn) [α-6-mPEG9-O-codeine],AUC,"[3]; iv, 1 mg/kg",297 ng·h/mL
same,AUC(0-inf),"[3]; iv, 1 mg/kg",347 ng·h/mL
same,MRT last,"[3]; iv, 1 mg/kg",0.953 h
same,clearance,"[3]; iv, 1 mg/kg",48.6 ± 6.74 mL/min/kg
same,Cmax,"[3]; iv, 1 mg/kg",730 ± 68 ng/mL
same,half-life,"[3]; iv, 1 mg/kg, read-out: T1/2(2)",1.82 ± 0.03 h
same,Vd,"[3]; iv, 1 mg/kg",5.18 ± 0.538 L/kg
same,AUC,[4],122 ng·h/mL
same,AUC(0-inf),[4],114 ng·h/mL
same,MRT last,[4],2.98 h
same,bioavailability,[4],8.22%
same,Cmax,[4],31.5 ± 8.43 ng/mL
same,half-life,[4],2.38 h
same,Tmax,[4],0.25 h
same,Emax,human mu opioid receptor [1]; [7],80%
same,EC50,human mu opioid receptor [1]; [8],48200 nM
same,Ki,human mu opioid receptor [2]; [9],9980 nM
"COCCOCCOCCOCCOCCOCCOCCOCCOCCOC1CCC2(O)C3Cc4ccc(OC)c5c4C2(CCN3C)C1O5 (stereo not drawn) [α-6-mPEG9-O-hydroxycodone, α-6-mPEG9-O-oxycodone]","mean t1/2 value, times that of the parent compound",[3]; 1 mg/kg IV,3 times
same,AUC,[3]; [5],277 ng·h/mL
same,AUC(0-inf),[3]; [5],350 ng·h/mL
same,MRT last,[3]; [5],0.878 h
same,clearance,[3]; [5],48.9 ± 9.41 mL/min/kg
same,Cmax,[3]; [5],955 ± 149 ng/mL
same,half-life,[3]; [6],2.38 ± 0.238 h
same,Vd,[3]; [5],6.35 ± 0.349 L/kg
same,Emax,human mu opioid receptor [1]; [7],95%
